How the values were obtained:
[1] = target: T1, full-length PDK1 (PDK1-FL) (Homo sapiens, UniProt O15530); assay: Microscale Thermophoresis (MST) binding affinity, full-length PDK1
T1 construct: the full-length (PDK1-FL) protein of human-derived PDK1; inferred from Ni-NTA purification; made in house; host or cells: Sf9 insect cells, baculovirus expression system
Experimental: Microscale Thermophoresis (MST) analysis was performed to quantitatively measure the binding affinity between PDK1 protein and substrate peptides (PDKTide) or the company-developed low-molecular-weight compound (GO88).
The target proteins were the full-length (PDK1-FL) protein of human-derived PDK1 and the Protein Kinase Domain (PKD) fragment, which were expressed using a baculovirus expression system in insect cell lines (Sf9).
The purity of the purified proteins was confirmed by SDS-PAGE and Coomassie Brilliant Blue staining.
The purified protein was labeled with a fluorescent label using the Monolith NT™ RED-NHS Protein Fluorescent Labeling Kit (NanoTemper).
Specifically, 20 μM of the protein was dissolved in PBS (pH 7.4) buffer, mixed with the fluorescent reagent, and reacted at room temperature under dark conditions for 30 minutes. The mixture was then buffered with MST analysis buffer (50 mM HEPES, 150 mM NaCl, 1 mM DTT, 0.05% Tween-20, pH 7.5). […]
The reaction samples were injected into an MST-specific capillary (NanoTemper) and analyzed using a Monolith NT.115 device (NanoTemper) under laser intensity conditions. […]
The measured data were analyzed using MO.Affinity Analysis software (NanoTemper), and the dissociation constant (Kd) was calculated from the binding curve.

[2] = test system: NHDF (Normal Human Dermal Fibroblast) cells; assay: Doxorubicin/IGF-1 induced aging of NHDF cells (SA-β-gal, Ki-67 FACS); format: cell-based; details: 0.01, 1 μM; Doxorubicin 100 ng/ml + IGF-1 100 ng/ml, 7 days; FIG. 39
Experimental: To confirm the anti-aging and rejuvenating effects of the compound GO15F of the present invention, a NHDF (Normal Human Dermal Fibroblast, Promocell) cell model was established by inducing aging with doxorubicin (Doxorubicin), and β-galactosidase activity and Ki-67 expression were analyzed in the cells. First, NHDF cells were seeded at 1×10^4 cells per well in a 12-well plate and stabilized for 24 hours. […] After pre-incubation, the medium was removed, and the cells were cultured for 7 days in medium containing Doxorubicin (100 ng/ml) and IGF-1 (100 ng/ml) with GO15F. During this process, the medium was replaced with fresh medium every 2 days. The cultured cells were washed with PBS, fixed with 1× fixation buffer for 15 minutes, washed again with PBS, and then 300 μL of 1× working SA-β-gal buffer was added to each well. The cells were incubated at 37° C. for 24 hours. After the reaction was terminated, the cells were washed with PBS, and the […] of β-gal-positive cells stained blue was observed and photographed using a light microscope. Additionally, to investigate the effect of the compound (GO15F) of the present invention on proliferation activity in aging-induced NHDF (Normal Human Dermal Fibroblast) cells, Ki-67 expression was measured via FACS analysis. First, NHDF cells were seeded at 1×10^4 cells per well in a 12-well plate and stabilized for 24 hours. […]

T1 sequence (O15530 whole entry): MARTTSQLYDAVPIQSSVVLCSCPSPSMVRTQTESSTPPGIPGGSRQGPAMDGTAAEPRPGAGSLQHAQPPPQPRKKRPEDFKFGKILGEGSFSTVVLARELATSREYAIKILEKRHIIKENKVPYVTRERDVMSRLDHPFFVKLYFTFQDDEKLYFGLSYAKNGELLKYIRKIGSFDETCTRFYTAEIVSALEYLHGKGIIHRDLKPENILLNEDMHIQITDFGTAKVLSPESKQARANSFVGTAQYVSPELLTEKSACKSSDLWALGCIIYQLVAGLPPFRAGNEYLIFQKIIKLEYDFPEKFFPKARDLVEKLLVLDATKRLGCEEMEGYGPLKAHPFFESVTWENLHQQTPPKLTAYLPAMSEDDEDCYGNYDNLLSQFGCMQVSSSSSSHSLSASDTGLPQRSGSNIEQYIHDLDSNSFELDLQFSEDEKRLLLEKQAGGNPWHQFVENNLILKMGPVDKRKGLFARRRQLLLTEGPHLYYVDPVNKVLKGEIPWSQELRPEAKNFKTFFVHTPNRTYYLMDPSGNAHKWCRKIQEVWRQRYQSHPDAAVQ

## Nc1ncccc1C(=O)NCCCCCCCCCCCCN1CCNCC1 [Compound 14, 2-Amino-N-(12-(piperazin-1-yl)dodecyl)nicotinamide]
[1]; FIG. 48, read-out: Dissociation constant (Kd), full-length PDK1
  Kd: ~58.4 nM
[1]; ratio of Kd values
  Binding affinity of full-length PDK1 compared to the PKD fragment: approximately six times stronger binding affinity

## Nc1ncccc1C(=O)NCCCCCCCCCCCCF [Compound 57, 2-Amino-N-(12-fluoro-dodecyl)-nicotinamide]
[2]
  Number of β-gal-positive cells (SA-β-gal): the number of β-gal-positive cells decreased

Source: US20260183274A1, “PDK1 REGULATORY COMPOUND AND COMPOSITION CONTAINING THE SAME” (PROVIBIO CO., LTD., priority 2024, published 2026)
